Common to all, as to assay type: binding
Data set [1] relates to α1-acid glycoprotein. As to the kind of experiment: Self-competition zonal elution of R- and S-propranolol on immobilized α1-acid glycoprotein HPLC column. As to conditions: pH 7.4 phosphate buffered saline, immobilized AGP column. The protocol:
(§1) The α1-acid glycoprotein and hydrazide-activated supports were downward slurry-packed at 28 MPa (4000 psi) into 50×4.1 mm I.D. stainless steel columns. These columns were enclosed in water jackets for temperature control. All studies, except those examining the temperature dependence of propranolol—α1-acid glycoprotein binding, were performed at 37° C. The mobile phases and packing solutions were prepared using pH 7.4 phosphate buffered saline (PBS, composition: 0.013 M potassium dihydrogen phosphate, 0.053 M disodium hydrogen phosphate and 0.133 M sodium chloride). Prior to use, all mobile phases were filtered through a 0.45 μm cellulose acetate filter and degassed under vacuum for 10 min. Elution of R- and S-propranolol was detected by monitoring the absorbance at 225 nm. Zonal elution studies were performed on the α1-acid glycoprotein column by applying pH 7.4 phosphate buffer solution containing up to 20 μM of the desired competing agent while making 20 μL injections of R-propranolol or S-propranolol onto the column. At each concentration of competing agent, three replicate injections of the desired analyte were made. The propranolol samples were prepared by dissolving 5.0 μM R- or S-propranolol in the appropriate mobile phase. All mobile phases containing propranolol were prepared using the individual enantiomers or propranolol. The flow rate ranged from 0.8 to 1.5 mL/min, with no significant changes in the retention factors being noted under this range of conditions.
(§2) The retention times for propranolol were calculated using a B/A0.5 method. The column void volume was determined by making injections of sodium nitrate onto a column containing only hydrazide-activated silica while monitoring the absorbance at 205 nm. All elution times were corrected for the extra-column volume of the chromatographic system, as determined by making injections of R-propranolol or S-propranolol when no column was present. A correction for the small amount of non-specific binding between propranolol and the hydrazide support was made by measuring the retention factors for this drug on a column equivalent in size to the α1-acid glycoprotein column, but containing only hydrazide-activated silica. This was measured at each propranolol concentration in the mobile phase and accounted for 3-15% of the retention factors noted for propranolol on the α1-acid glycoprotein column. […] The column was stored in pH 7.4 PBS buffer at 4° C. when not in use.
All of the results presented in Table 2 were generated by performing self-competition zonal elution studies at temperatures ranging from 5° C. to 37° C. in pH 7.4 phosphate buffered saline. The numbers in parentheses represent a range of ± one standard deviation.

Data set [2] relates to α1-acid glycoprotein. The data set can be described thus: Retention of R- and S-propranolol on α1-acid glycoprotein column as a function of pH. The note with it: for decrease of retention factor: pH decreased from 7.4 to 4.8. How it is done:
as §1, §2
The effect of other separation conditions such as pH were also evaluated. For instance, as the pH decreased from 7.4 to 4.8, the retention factor for R-propranolol decreased from 132 to 17.8 (87%), while the retention factor for S-propranolol decreased from 167 to 17.8 (89%).

Data set [3] can be described thus: Effects of periodate oxidation on activity of immobilized α1-acid glycoprotein (chromatographic studies). As to conditions: 37° C., pH 7.4 PBS. The protocol: FIG. 2A illustrates an exemplary method for preparing oxidized α1-acid glycoprotein. The conditions chosen for this reaction vary according to the final degree of oxidation desired. […] This mixture was allowed to react for 10 to 15 minutes at room temperature in the dark and quenched by adding 0.25 mL ethylene glycol per milliliter of sample. After this new mixture had reacted for 2 minutes, it was put into a dialysis bag at 4° C. for 2 hours against 2 liters pH 7.0, 20 mM acetate buffer containing 0.15 M sodium chloride. This was followed by three additional two-hour dialysis cycles against 2 liter portions of pH 7.0, 0.10 M potassium phosphate buffer.
Oxidized α1-acid glycoprotein was immobilized to hydrazide-activated silica by a procedure illustrated in FIG. 2C. In exemplary studies, a 5 mL portion of pH 7.0, 0.10 M phosphate buffer containing 1.5 mg/mL oxidized α1-acid glycoprotein was mixed with 0.03 grams of hydrazide-activated silica. This mixture was sonicated under aspirator vacuum for 10 minutes to remove any air bubbles from the suspension. It was then placed onto a shaker and allowed to react at 4° C. for up to seven days, with more than two days being optimum. The reaction was stopped by centrifuging the reaction mixture and removing the supernatant. The support was next washed several times with pH 7.0, 0.10 M phosphate buffer, followed by several additional washings with deionized water. Any hydrazide groups remaining on this support were removed by adding a 200-fold excess of glyceraldehyde versus the support's original hydrazide content. This mixture was shaken at 4° C. for 6 hours. The support was then washed several times with pH 7.0, 0.10 M phosphate buffer. The amount of immobilized α1-acid glycoprotein was determined by comparing the final and initial concentrations of α1-acid glycoprotein in the reaction slurry, using absorbance measurements at 280 nm.
as §1
The retention times for propranolol were calculated using a B/A0.5 method. The column void volume was determined by making injections of sodium nitrate onto a column containing only hydrazide-activated silica while monitoring the absorbance at 205 nm. All elution times were corrected for the extra-column volume of the chromatographic system, as determined by making injections of R-propranolol or S-propranolol when no column was present. […]

[4] abbreviates: AGP oxidized with 10 mM periodate.
The mark [5] stands for this setting: AGP oxidized with 20 mM periodate.
Where [6] appears, read: AGP oxidized with 50 mM periodate.

Experimental findings from patent US7575908B1, “Immobilization method for producing active α1-acid glycoprotein” (Board of Regents of the University of Nebraska, priority 2005, dated 2009) are described below.

As to `CC(C)NCC(O)COc1cccc2ccccc12` (centres unmarked) [S-Propranolol], the “Association equilibrium constant, Ka” value in the data set with α1-acid glycoprotein [1] (5° C.) was 11 (±3) × 10^6 M^−1; in the data set on α1-acid glycoprotein [1] (15° C.) it was 9 (±2) × 10^6 M^−1; in the data set with α1-acid glycoprotein [1] (25° C.) it was 5.2 (±1.7) × 10^6 M^−1; in the data set on α1-acid glycoprotein [1] (37° C.), 4.2 (±0.3) × 10^6 M^−1. Further, the retention factor in the data set on α1-acid glycoprotein [2] (pH 4.8, AGP column) was 17.8; in the data set on α1-acid glycoprotein [2] (pH 7.4, AGP column), 167. The “decrease of retention factor” value in the data set with α1-acid glycoprotein [2] came to 89%.
Regarding α1-acid glycoprotein [AGP], the Binding capacity in data set [3] (setting [4]) is listed as 6.8 (±0.2) mg/g silica; in data set [3] (setting [5]) it was 6.3 (±0.3) mg/g silica; in data set [3] (setting [6]), 6.8 (±0.3) mg/g silica. Besides, the Specific activity in data set [3] (setting [4]) is 0.67 (±0.02) mg/mg AGP; in data set [3] (setting [5]) it was 0.40 (±0.02) mg/mg AGP; in data set [3] (setting [6]) it was 0.47 (±0.03) mg/mg AGP.
For `CC(C)NC[C@@H](O)COc1cccc2ccccc12` [R-Propranolol], the “Association equilibrium constant, Ka” value is 8 (±2) × 10^6 M^−1 in the data set on α1-acid glycoprotein [1] (5° C.), 7 (±1) × 10^6 M^−1 in the data set on α1-acid glycoprotein [1] (15° C.), 3.9 (±0.2) × 10^6 M^−1 in the data set on α1-acid glycoprotein [1] (25° C.) and 2.7 (±0.2) × 10^6 M^−1 in the data set on α1-acid glycoprotein [1] (37° C.). Further, the retention factor in the data set with α1-acid glycoprotein [2] (pH 4.8, AGP column) was 17.8; in the data set with α1-acid glycoprotein [2] (pH 7.4, AGP column), 132. The “decrease of retention factor” value with α1-acid glycoprotein [2] is 87%.
